Legend:
[1] = tested on: RKO (RKOp27) human colon adenocarcinoma cells; assay: Alamar Blue cell viability assay, anti-proliferative/cytotoxic activity on proliferating RKOp27 cells; format: cell-based; settings: absence of Ponasterone A, 72 hours incubation, read-out: IC50 RKO p27 proliferating
Method: The anti-proliferative/cytotoxic activity of the compounds described herein, can be tested on subclones of RKO (RKOp27) human colon adenocarcinoma cells (Schmidt et al., Oncogene 19, 2423-2429; 2000) using the Alamar Blue cell viability assay (described in O'Brien et al. Eur J Biochem 267, 5421-5426, 2000). The compounds are dissolved as 20 mM solutions in dimethylsulfoxide (DMSO) and subsequently diluted in semi-logarithmic steps. DMSO dilutions are further diluted 1:100 into Dulbecco's modified Eagle's medium (DMEM) containing 10% fetal calf serum to a final concentration twice as much as the final concentration in the test. RKO subclones are seeded into 96 well flat bottom plates at a density of 4000 cells per well in a volume of 50 μl per well. 24 hours after seeding 50 μl each of the compound dilutions in DMEM are added into each well of the 96 well plate. Each compound dilution is tested as quadruplicates. Wells containing untreated control cells are filled with 50 μl DMEM containing 1% DMSO. The cells are then incubated with the substances for 72 hours at 37° C. in a humidified atmosphere containing 5% carbon dioxide. To determine the viability of the cells, 10 μl of an Alamar Blue solution (Biosource) are added and the fluorescence is measured at an extinction of 544 nm and an emission of 590 nm. For the calculation of the cell viability the emission value from untreated cells is set as 100% viability and the emission rates of treated cells are set in relation to the values of untreated cells. Viabilities are expressed as % values.
The corresponding IC50 values of the compounds for anti-proliferative/cytotoxic activity are determined from the concentration-effect curves.
Representative IC50 values for anti-proliferation/cytotoxicity determined in the aforementioned assay are described in the table A (1st column), in which the numbers of the compound correspond to the numbers of the examples.

[2] = tested on: RKO colon adenocarcinoma cells (RKOp27) arrested by expression of ectopic p27Kip1; assay: Alamar Blue cell viability assay on RKOp27 cells arrested by Ponasterone A-induced p27Kip1 (cell cycle specific mode of action); format: cell-based; settings: Homo sapiens, RKOp27, 72 h, cells arrested by p27Kip1 induced with 10 μM Ponasterone A, 72 hours incubation, read-out: IC50 RKO p27 arrested
Method: To determine the cell cycle specific mode of action, subclones of RKO colon adenocarcinoma cells (RKOp27 or RKOp21 as described by Schmidt et al. in Oncogene 19, 2423-2429; 2000) are seeded into 96 well flat bottom plates at a density of 16000 cells per well in a volume of 50 μl per well in DMEM growth medium with 10% FCS containing 10 μM Ponasterone A. 24 hours after seeding 50 μl each of the compound dilutions in DMEM are added into each well of the 96 well plate. Each compound dilution is tested as quadruplicates. Wells containing untreated control cells are filled with 50 μl DMEM containing 1% DMSO. The cells are then incubated with the substances for 72 hours at 37° C. in a humidified atmosphere containing 5% carbon dioxide. To determine the viability of the cells, 10 μl of an Alamar Blue solution (Biosource) are added and the fluorescence is measured at an extinction of 544 nm and an emission of 590 nm. For the calculation of the cell viability the emission value from untreated cells is set as 100% viability and the emission rates of treated cells are set in relation to the values of untreated cells. Viabilities are expressed as % values. Viability is compared of proliferating cells grown in the absence of the inducer Ponasterone A, versus viability of cells arrested by the expression of ectopic p27Kip1 induced by Ponasterone A. The data of this experimental setting are summarized in table A (2nd column).

SMILES | IC50 [2] [µM] | IC50 [1] [µM]
CCSC(=O)N1CCc2c(sc(NC(=O)/C=C/c3cccnc3)c2C#N)C1 [Example 36, 3-Cyano-2-((E)-3-pyridin-3-yl-allanoylamino)-4,7-dihydro-5H-thieno[2,3-c]pyridine-6-carbothioic acid S-ethyl ester] | > 100 | ≤ 2
CCNC(=O)N1CCc2c(sc(NC(=O)/C=C/c3ccccc3)c2C#N)C1 [Example 37, 3-Cyano-2-((E)-phenyl-allanoylamino)-4,7-dihydro-5H-thieno[2,3-c]pyridine-6-carboxylic acid ethylamide] | > 100 | ≤ 2
CCNC(=O)N1CCc2c(sc(NC(=O)/C=C/c3cccnc3)c2C#N)C1 [Example 38, 3-Cyano-2-((E)-3-pyridin-3-yl-allanoylamino)-4,7-dihydro-5H-thieno[2,3-c]pyridine-6-carboxylic acid ethylamide] | > 100 | ≤ 2
CCCC(=O)N1CCc2c(sc(NC(=O)/C=C/c3cccnc3)c2C#N)C1 [Example 39, (E)-N-(6-Butyryl-3-cyano-4,5,6,7-tetrahydro-thieno[2,3-c]pyridin-2-yl)-3-pyridin-3-yl-acrylamide] | > 100 | ≤ 2
CCCCOC(=O)N1CCc2c(sc(NC(=O)/C=C/c3cccnc3)c2C#N)C1 [Example 43, 3-Cyano-2-((E)-3-pyridin-3-yl-allanoylamino)-4,7-dihydro-5H-thieno[2,3-c]pyridine-6-carboxylic acid butyl ester] | > 100 | ≤ 2
COC(=O)N1CCc2c(sc(NC(=O)/C=C/c3cccnc3)c2C#N)C1 [Example 44, 3-Cyano-2-((E)-3-pyridin-3-yl-allanoylamino)-4,7-dihydro-5H-thieno[2,3-c]pyridine-6-carboxylic acid methyl ester] | > 100 | ≤ 2
COc1cccc(OC(=O)N2CCc3c(sc(NC(=O)/C=C/c4cccnc4)c3C#N)C2)c1 [Example 45, 3-Cyano-2-((E)-3-pyridin-3-yl-allanoylamino)-4,7-dihydro-5H-thieno[2,3-c]pyridine-6-carboxylic acid 3-methoxy-phenyl ester] | > 100 | ≤ 2
N#Cc1c(NC(=O)/C=C/c2cccnc2)sc2c1CCN(C(=O)OCCc1ccccc1)C2 [Example 47, 3-Cyano-2-((E)-3-pyridin-3-yl-allanoylamino)-4,7-dihydro-5H-thieno[2,3-c]pyridine-6-carboxylic acid phenethyl ester] | > 100 | ≤ 2
CCSC(=O)N1CCc2c(sc(NC(=O)/C=C/c3ccccc3Cl)c2C#N)C1 [Example 48, 2-[(E)-3-(2-Chloro-phenyl)-allanoylamino]-3-cyano-4,7-dihydro-5H-thieno[2,3-c]pyridine-6-carbothioic acid S-ethyl ester] | ≥ 100 | ≤ 2
CCCCCSC(=O)N1CCc2c(sc(NC(=O)/C=C/c3ccccc3)c2C#N)C1 [Example 49, 3-Cyano-2-((E)-3-phenyl-allanoylamino)-4,7-dihydro-5H-thieno[2,3-c]pyridine-6-carbothioic acid S-pentyl ester] | ≥ 100 | ≤ 2
CCSC(=O)N1CCc2c(sc(NC(=O)/C=C/c3ccccc3OC)c2C#N)C1 [Example 50, 3-Cyano-2-[(E)-3-(2-methoxy-phenyl)-allanoylamino]-4,7-dihydro-5H-thieno[2,3-c]pyridine-6-carbothioic acid S-ethyl ester] | ≥ 100 | ≤ 2
N#Cc1c(NC(=O)/C=C/c2ccccc2)sc2c1CCN(C(=O)n1ccnc1)C2 [Example 53, (E)-N-[3-Cyano-6-(1-imidazol-1-yl-methanoyl)-4,5,6,7-tetrahydro-thieno[2,3-c]pyridin-2-yl]-3-phenyl-acrylamide] | ≥ 100 | ≤ 2
CCOc1ccccc1/C=C/C(=O)Nc1sc2c(c1C#N)CCN(C(=O)OC(C)(C)C)C2 [Example 54, 3-Cyano-2-[(E)-3-(2-ethoxy-phenyl)-allanoylamino]-4,7-dihydro-5H-thieno[2,3-c]pyridine-6-carboxylic acid tert-butyl ester] | ≥ 50 | ≤ 0.5
CC(C)(C)OC(=O)N1CCc2c(sc(NC(=O)/C=C/c3ccoc3)c2C#N)C1 [Example 55, 3-Cyano-2-((E)-3-furan-3-yl-allanoylamino)-4,7-dihydro-5H-thieno[2,3-c]pyridine-6-carboxylic acid tert-butyl ester] | ≥ 100 | ≤ 2

The next lines start with results.

IC50 [2] [µM] | SMILES | IC50 [1] [µM]
≥ 100 | CCOC(=O)N1CCc2c(sc(NC(=O)/C=C/c3c(F)ccc(F)c3Cl)c2C#N)C1 [Example 57, 2-[(E)-3-(2-Chloro-3,6-difluoro-phenyl)-allanoylamino]-3-cyano-4,7-dihydro-5H-thieno[2,3-c]pyridine-6-carboxylic acid ethyl ester] | ≤ 2
≥ 100 | CCOC(=O)N1CCc2c(sc(NC(=O)/C=C/c3ccc(Cl)cc3F)c2C#N)C1 [Example 59, 2-[(E)-3-(4-Chloro-2-fluoro-phenyl)-allanoylamino]-3-cyano-4,7-dihydro-5H-thieno[2,3-c]pyridine-6-carboxylic acid ethyl ester] | ≤ 2
≥ 100 | CCOC(=O)N1CCc2c(sc(NC(=O)/C=C/c3ccc(OCC)cc3)c2C#N)C1 [Example 60, 3-Cyano-2-[(E)-3-(4-ethoxy-phenyl)-allanoylamino]-4,7-dihydro-5H-thieno[2,3-c]pyridine-6-carboxylic acid ethyl ester] | ≤ 2
≥ 100 | CCOC(=O)N1CCc2c(sc(NC(=O)/C=C/c3cccc(Cl)c3F)c2C#N)C1 [Example 61, 3-Cyano-2-[(E)-3-(3-chloro-2-fluoro-phenyl)-allanoylamino]-4,7-dihydro-5H-thieno[2,3-c]pyridine-6-carboxylic acid ethyl ester] | ≤ 2
≥ 100 | CCOC(=O)N1CCc2c(sc(NC(=O)/C=C/c3ccccc3OCC)c2C#N)C1 [Example 62, 3-Cyano-2-[(E)-3-(2-ethoxy-phenyl)-allanoylamino]-4,7-dihydro-5H-thieno[2,3-c]pyridine-6-carboxylic acid ethyl ester] | ≤ 2
≥ 100 | CCOC(=O)N1CCc2c(sc(NC(=O)/C=C/c3sccc3Cl)c2C#N)C1 [Example 64, 2-[(E)-3-(3-Chloro-thiophen-2-yl)-allanoylamino]-cyano-4,7-dihydro-5H-thieno[2,3-c]pyridine-6-carboxylic acid ethyl ester] | ≤ 2
≥ 100 | CCOC(=O)N1CCc2c(sc(NC(=O)/C=C/c3c(F)cccc3F)c2C#N)C1 [Example 65, 3-Cyano-2-[(E)-3-(2,6-difluoro-phenyl)-allanoylamino]-4,7-dihydro-5H-thieno[2,3-c]pyridine-6-carboxylic acid ethyl ester] | ≤ 2
≥ 100 | CCOC(=O)N1CCc2c(sc(NC(=O)/C=C/c3ccccc3Br)c2C#N)C1 [Example 66, 2-[(E)-3-(2-Bromo-phenyl)-allanoylamino]-3-cyano-4,7-dihydro-5H-thieno[2,3-c]pyridine-6-carboxylic acid ethyl ester] | ≤ 2
≥ 100 | CCOC(=O)N1CCc2c(sc(NC(=O)/C=C/c3c(F)cccc3Cl)c2C#N)C1 [Example 67, 2-[(E)-3-(2-Chloro-6-fluoro-phenyl)-allanoylamino]-cyano-4,7-dihydro-5H-thieno[2,3-c]pyridine-6-carboxylic acid ethyl ester] | ≤ 2
≥ 100 | CCOC(=O)N1CCc2c(sc(NC(=O)/C=C/c3c(F)ccc(F)c3F)c2C#N)C1 [Example 68, 3-Cyano-2-[(E)-3-(2,3,6-trifluoro-phenyl)-allanoylamino]-4,7-dihydro-5H-thieno[2,3-c]pyridine-6-carboxylic acid ethyl ester] | ≤ 2
